Reference: patent US5273979A, “C-31 desmethyl FR-900520 cyclic hemiketal immunosuppressant agent” (Merck & Co., Inc., priority 1991, dated 1993)
Entries after “also recorded” stand apart in the source; their conditions may differ. Where two headings read alike, the source gives them in different places.

Assays:
[1] = tested on: Splenic T-cells stimulated with ionomycin + PMA; assay: T-cell proliferation assay (ionomycin plus PMA induced T-cell stimulation assay); assay type: cell-based, mouse
Experimental: Cells were pelleted by centrifugation at 1500 rpm for 8 minutes. Contaminating red cells were removed by treating the pellet with ammonium chloride lysing buffer (GIBCO) for 2 minutes at 4° C. Cold medium was added and cells were again centrifuged at 1500 rpm for 8 minutes. T lymphocytes were then isolated by separation of the cell suspension on nylon wool columns as follows: Nylon wool columns were prepared by packing approximately 4 grams of washed and dried nylon wool into 20 ml plastic syringes. The columns were sterilized by autoclaving at 250° F. for 30 minutes. Nylon wool columns were wetted with warm (37° C.) culture medium and rinsed with the same medium. Washed spleen cells resuspended in warm medium were slowly applied to the nylon wool. The columns were then incubated in an upright position at 37° C. for 1 hour. Non-adherent T lymphocytes were eluted from the columns with warm culture medium and the cell suspensions were spun as above.
The cell suspension was immediately distributed into 96 well flat-bottom microculture plates (Costar) at 200 μl/well. […] The proliferation of T lymphocytes was assessed by measurement of tritiated thymidine incorporation. After 44 hours of culturing, the cells were pulse-labelled with 2 μCi/well of tritiated thymidine (NEN, Cambridge, Mass.). After another 4 hours of incubation, cultures were harvested on glass fiber filters using a multiple sample harvester. Radioactivity of filter discs corresponding to individual wells was measured by standard liquid scintillation counting methods (Betacounter). Mean counts per minute of replicate wells were calculated and the results expressed as percent inhibition of tritiated thymidine uptake (proliferation) as follows: [formula]

[2] = biological target: T1, 31-O-desmethylimmunomycin O-methyltransferase (DIMT) (Streptomyces hygroscopicus, UniProt Q9KID5); assay: S-adenosyl-L-methionine: 31-O-desmethylimmunomycin O-methyltransferase (DIMT) assay; assay type: biochemical, Streptomyces hygroscopicus var. ascomyceticus
T1 construct: cell-free extract, DEAE-Sepharose pool, or second MonoQ preparation (kinetics)
T1 sequence (Q9KID5 1-260): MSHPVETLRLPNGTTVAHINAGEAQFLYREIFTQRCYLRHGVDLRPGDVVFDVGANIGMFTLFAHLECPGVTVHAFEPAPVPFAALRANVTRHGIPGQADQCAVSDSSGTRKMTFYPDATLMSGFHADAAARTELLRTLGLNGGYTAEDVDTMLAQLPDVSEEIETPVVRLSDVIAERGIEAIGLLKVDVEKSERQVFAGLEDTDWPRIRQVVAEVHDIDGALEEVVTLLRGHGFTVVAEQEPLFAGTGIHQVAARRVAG
Experimental: The assay was carried out in 1 ml. mixture containing 0.025 mM 31-desmethylimmunomycin, 1 mM MgSO4 and different quantities of the enzyme source in 50 mM phosphate buffer, pH 7.5. Reaction was initiated by the addition of 1 nmole of ^14 C-SAM (S-adenosyl-L-[methyl-^14 C] methionine with the specific activity of 46 mCi/mmole. Incubation of the complete mixture was carried out at 34° C. for 20 minutes and the reaction was terminated by the addition of ethyl acetate. Product of the reaction was extracted with 2 ml of ethyl acetate and 1 ml of the extract was used for TLC and HPLC analysis. For the analysis of the radioactive reaction product (immunomycin), the ethyl acetate extract was spiked with the standard immunomycin and subjected to the TLC with a plate having plastic support. The plastic sheet was developed in chloroform:methanol (9:1) and area showing standard immunomycin under UV-light was cut and the radioactivity in the cut-strip was measured. The amount of the product formed was calculated from the measured radioactivity. For the HPLC analysis of the product of the enzyme reaction, several enzymatic reaction mixtures were pooled and the extract was subjected to the TLC analysis as above. The area on the silica gel plate showing the band having an Rf value identical with the standard immunomycin was scraped and eluted with ethyl acetate. The ethyl acetate extract was washed with water, dried under nitrogen and the residue was subjected to the HPLC analysis on Partisil 5-ODS-3 column with acetonitrile:water:phosphoric acid (65:35:0.1) as the eluting solvent. One milliliter fractions were collected and a portion of each fraction was examined for the radioactivity.
Examination of the optimal temperature, pH and metal requirement of the DIMT activity was carried out on the enzyme preparation obtained from DEAE-Sepharose column. For kinetic analysis, a preparation which had been purified through a second MonoQ column chromatography was utilized.

Row | Structure (SMILES) | Inhibition of T-cell activation (result in words) [1] | Inhibition of DIMT activity (result in words) [2] | Inhibition of DIMT activity (result in words) ([2]; crude extract) | also measured
1 | CC[C@@H]1C=C2COC1(O)C[C@H](O)[C@@H](C)[C@@H](/C(C)=C/[C@@H]1CC[C@@H](O)[C@H](OC)C1)OC(=O)[C@@H]1CCCCN1C(=O)C(=O)[C@]1(O)O[C@H]([C@@H](OC)C[C@@H](C)C2)[C@@H](OC)C[C@H]1C [Compound II] | positive inhibition of T-cell activation; also recorded: positive results |  |  | 
2 | CC[C@@H]1C=C2COC1(O)C[C@H](O)[C@@H](C)[C@@H](/C(C)=C/[C@@H]1CC[C@@H](O)[C@H](O)C1)OC(=O)[C@@H]1CCCCN1C(=O)C(=O)[C@]1(O)O[C@H]([C@@H](OC)C[C@@H](C)C2)[C@@H](OC)C[C@H]1C [Compound I] | positive inhibition of T-cell activation |  |  | Activity versus the FK-506 immunosuppressive activity (result in words) [1]: antagonist activity; Reversal of inhibition of T-cell proliferation by IL2 ([1]; 50 units/ml recombinant IL2 added at the initiation of culture): reversed; IC50 ([1]; Mus musculus, T-cell, general range, read-out: IC50, generally in the range): 10 to 18 nM
3 | O=C(O)CN(CCN(CC(=O)O)CC(=O)O)CC(=O)O [EDTA] |  | major inhibition | completely inhibited | 
4 | Nc1ncnc2c1ncn2[C@@H]1O[C@H](CSCC[C@H](N)C(=O)O)[C@@H](O)[C@H]1O [S-adenosyl-homocysteine (SAH), S-adenosyl-homocysteine] |  | major inhibition |  | 
5 | N.N.O=S(=O)(O)O [ammonium sulfate] |  |  | inhibited | 
6 | Nc1ncnc2c1ncn2[C@@H]1O[C@H](C[C@@H](N)CC[C@H](N)C(=O)O)[C@@H](O)[C@H]1O [sinefungin] |  | major inhibition |  | 
